Data reported in the supplement of paper PMC10307832.

Assays:
Test in all cases: relative viability (nuclei count vs DMSO), 5 days (fraction); higher = more cells survive
[1] = compound: C1CC1C(=O)NC2=NNC3=C2C=CC(=C3)C4=CC(=CC=C4)C(=O)NC5CC5 [XMD13-2] + Cc1nc(NC(=O)N2CCC[C@H]2C(N)=O)sc1-c1ccnc(C(C)(C)C(F)(F)F)c1 [Alpelisib] (partner 2 µM)
Procedure, shortened: (§1)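 Lung cancer cell lines, seeded in 1536-well plates, were treated the following day by pin tool with a single drug or with five library-drug doses (not always all listed) in √10 steps on top of a fixed anchor-drug dose. Cells were fixed and nuclei stained in one step after 5 days, and nuclei were counted. Relative viability is the nuclei count for treated wells divided by that for vehicle wells, reported as medians of duplicate plates.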

[2] = compound: C1CC1C(=O)NC2=NNC3=C2C=CC(=C3)C4=CC(=CC=C4)C(=O)NC5CC5 [XMD13-2] + CC1(C)CCC(c2ccc(Cl)cc2)=C(CN2CCN(c3ccc(C(=O)NS(=O)(=O)c4ccc(N[C@H](CCN5CCOCC5)CSc5ccccc5)c(S(=O)(=O)C(F)(F)F)c4)cc3)CC2)C1 [Navitoclax] (partner 0.5 µM)
Procedure, shortened: as §1

[3] = compound: Cc1ccc(C(=O)Nc2cccc(C(F)(F)F)c2)cc1Nc1cncc(C(N)=O)c1 [ALW-II-49-7] + O=C(CCCCCCC(=O)Nc1ccccc1)NO [Vorinostat] (partner 1 µM)
Procedure, shortened: as §1

[4] = compound: Cc1ccc(C(=O)Nc2cccc(C(F)(F)F)c2)cc1Nc1cncc(C(N)=O)c1 [ALW-II-49-7] + NC(=O)Nc1cc(-c2cccc(F)c2)sc1C(=O)N[C@H]1CCCNC1 [AZD7762] (partner 0.2 µM)
Procedure, shortened: as §1

Cell Line | relative viability ([1]; first compound 0.05 µM) | relative viability ([1]; first compound 0.1581 µM) | relative viability ([1]; first compound 0.5 µM) | relative viability ([1]; first compound 1.581 µM) | relative viability ([1]; first compound 5 µM) | relative viability ([2]; first compound 0.05 µM) | relative viability ([2]; first compound 0.1581 µM) | relative viability ([2]; first compound 0.5 µM) | relative viability ([2]; first compound 1.581 µM) | relative viability ([2]; first compound 5 µM) | relative viability ([3]; first compound 0.08 µM) | relative viability ([3]; first compound 0.253 µM) | relative viability ([3]; first compound 0.8 µM) | relative viability ([3]; first compound 2.53 µM) | relative viability ([3]; first compound 8 µM) | relative viability ([4]; first compound 0.08 µM) | relative viability ([4]; first compound 0.253 µM) | relative viability ([4]; first compound 0.8 µM) | relative viability ([4]; first compound 2.53 µM) | relative viability ([4]; first compound 8 µM)
NCI-H2023 | 0.661 | 0.618 | 0.52 | 0.53 | 0.617 | 1.01 | 1.03 | 0.893 | 0.968 | 1 | 0.683 | 0.688 | 0.434 | 0.64 | 0.625 | – | – | – | – | –
EBC-1 | 0.999 | 0.801 | 0.907 | 0.738 | 0.483 | 0.563 | 0.375 | 0.404 | 0.232 | 0.176 | – | – | – | – | – | – | – | – | – | –
NCI-H1666 | 1.02 | 1.07 | 0.936 | 0.874 | 0.879 | 0.886 | 1.03 | 0.881 | 0.905 | 0.92 | 0.903 | 1.07 | 1.11 | 0.971 | 1 | 0.858 | 0.855 | 0.822 | 0.839 | 0.77
NCI-H1975 | 0.768 | 0.642 | 0.656 | 0.607 | 0.648 | 1.17 | 1.28 | 1.01 | 1.02 | 1.18 | 0.713 | 0.686 | 0.643 | 0.66 | 0.542 | 0.743 | 0.815 | 0.673 | – | 0.589
NCI-H2170 | 0.97 | 0.77 | 0.871 | 0.777 | 0.696 | 0.761 | 0.577 | 0.577 | 0.569 | 0.475 | 0.917 | 0.921 | 0.841 | 0.796 | 0.867 | 1.03 | 0.775 | 0.833 | 0.835 | 0.817
NCI-H1355 | 0.924 | 0.888 | 0.843 | 0.777 | 0.776 | 0.971 | 0.941 | 0.904 | 0.899 | 0.89 | 0.63 | 0.618 | 0.615 | 0.591 | 0.597 | 0.71 | 0.805 | 0.738 | 0.695 | 0.606
NCI-H1648 | – | – | – | – | – | – | – | – | – | – | 0.346 | 0.298 | 0.287 | 0.327 | 0.425 | 0.62 | 0.697 | 0.74 | 0.678 | 0.618
A549 | 1.05 | 0.709 | 0.812 | 0.714 | 0.952 | 1.53 | 1.23 | 1.13 | 1.16 | 1.17 | – | – | – | – | – | – | – | – | – | –
SK-MES-1 | 0.935 | 0.922 | 0.869 | 0.876 | 1.04 | 1.26 | 1.32 | 1.21 | 1.24 | 1.2 | 1.14 | 1.16 | 1.05 | 1.04 | 0.938 | – | – | – | – | –
EKVX | 1.12 | 0.882 | 0.92 | 0.931 | 0.937 | 1.17 | 0.869 | 0.859 | 0.973 | 0.997 | 0.407 | 0.747 | 0.734 | 0.678 | 0.636 | 0.665 | 0.619 | 0.821 | 0.574 | 0.646
RERF-LC-KJ | 0.776 | 0.902 | 0.842 | 0.641 | 0.91 | 1.14 | 1.03 | 0.674 | 1 | 0.733 | 0.646 | 0.731 | 0.653 | 0.755 | 0.646 | 1.15 | 0.995 | 0.827 | 0.975 | 0.956
NCI-H1755 | 0.928 | 0.915 | 0.928 | 0.92 | 0.965 | 1.03 | 0.985 | 1.07 | 1.01 | 0.986 | 0.88 | 0.83 | 0.783 | 0.685 | 0.608 | 0.543 | 0.497 | 0.379 | 0.432 | 0.382
NCI-H661 | 0.751 | 0.854 | 0.506 | 0.4 | 0.448 | – | – | – | – | – | 0.854 | 0.859 | 0.823 | 0.795 | 0.79 | – | – | – | – | –
LOU-NH91 | 0.783 | 0.759 | 0.72 | 0.659 | 0.796 | 0.752 | 0.688 | 0.715 | 0.696 | 0.769 | 0.884 | 0.888 | 1 | – | 0.805 | 0.567 | 0.774 | 0.782 | – | 0.596
LXF-289 | 1.09 | 0.982 | 1.08 | 1.05 | 1.04 | 0.965 | 0.956 | 0.988 | 0.914 | 0.93 | 0.726 | 0.877 | 0.81 | 0.854 | 0.762 | 1.08 | 1.11 | 0.981 | 1.26 | 1.22
HCC-44 | 0.995 | 0.843 | 0.934 | 0.82 | 0.745 | 1.01 | 1.03 | 1.12 | 0.949 | 1 | 1.14 | 1.11 | 1.11 | 1.12 | 1.09 | 0.992 | 1.02 | 1.03 | 1.03 | 0.964
HARA | 0.923 | 0.795 | 0.943 | 0.808 | 0.988 | 1.1 | 1.08 | 1.16 | 1.13 | 1.14 | 0.608 | 0.597 | 0.634 | 0.594 | 0.58 | 0.325 | 0.28 | 0.3 | 0.375 | 0.347
201T | 1.07 | 1.03 | 0.945 | 1 | 1.07 | 1.22 | 1.25 | 1.2 | 1.19 | 1.29 | 0.922 | 1.02 | 0.995 | 1.02 | 0.801 | 0.661 | 0.604 | 0.745 | 0.574 | 0.552
